In this assay the test system is Wnt signaling. The experiment in a line: Wnt-Luc reporter assay for pathway inhibition of Wnt signaling. Format: cell-based, mouse (TM3 Wnt-Luc) or human (293 Wnt-Luc); not stated which. The conditions noted are these: Wnt-Luc reporter cells co-cultured with L-cell Wnt3a cells, 24 hours, luciferase signal reduced by 50%. The method, then: This example provides a method that is useful for evaluating test compounds for inhibition of Wnt signaling.
Mouse leydig cell TM3 cells (obtained from American Type Culture Collection, ATCC, Manassas, Va.) are cultured in 1:1 mixture of Ham's F12 medium and Dulbecco's modified Eagle's medium (Gibco/Invitrogen, Carlsbad, Calif.) supplemented with 2.5% FBS (Gibco/Invitrogen, Carlsbad, Calif.) and 5% horse serum (Gibco/Invitrogen, Carlsbad, Calif.), 50 unit/mL penicillin and 50 μg/mL of streptomycin (Gibco/Invitrogen, Carlsbad, Calif.) at 37° C. with 5% CO2 in air atmosphere. TM3 cells in a 10 cm dish are co-transfected with 8 μg of STF-reporter plasmid containing a luciferase gene driven by Wnt-responsive elements and 2 μg of pcDNA3.1-Neo (Gibco/Invitrogen, Carlsbad, Calif.) with 30 μL of FuGENE6 (Roche Diagnostics, Indianapolis, Ind.) following the manufacturer's protocol. Stable cell lines (TM3 Wnt-Luc) were selected with 400 μg/mL of G418 (Gibco/Invitrogen, Carlsbad, Calif.). The TM3 Wnt-Luc cells and L-cell Wnt3a cells (obtained from American Type Culture Collection, ATCC, Manassas, Va.; cultured in Dulbecco's modified Eagle's medium (Gibco/Invitrogen, Carlsbad, Calif.) supplemented with 10% FBS (Gibco/Invitrogen, Carlsbad, Calif.) and 50 unit/mL penicillin and 50 μg/mL of streptomycin (Gibco/Invitrogen, Carlsbad, Calif.) at 37° C. with 5% CO2 in air atmosphere) are trypsinized and co-cultured into a 384-well plate with DMEM medium supplemented with 2% FBS, and treated with different concentrations of a compound of the invention. After 24 hours, the firefly luciferase activities are assayed with the Bright-Glo™ Luciferase Assay System (Promega, Madison, Wis.). The IC50 is measured when the effect of the compound reduces the luminescence signal by 50%.
This example provides another method that is useful for evaluating test compounds for inhibition of Wnt signaling.
Human embryonic kidney 293 cells (obtained from American Type Culture Collection, ATCC, Manassas, Va.) are cultured in DMEM medium (Gibco/Invitrogen, Carlsbad, Calif.) supplemented with 10% FBS (Gibco/Invitrogen, Carlsbad, Calif.), 50 unit/mL penicillin and 50 μg/mL of streptomycin (Gibco/Invitrogen, Carlsbad, Calif.) at 37° C. with 5% CO2 in air atmosphere. 293 cells in a 10 cm dish are co-transfected with 8 μg of STF-reporter plasmid containing a luciferase gene driven by Wnt-responsive elements and 2 μg of pcDNA3.1-Neo (Gibco/Invitrogen, Carlsbad, Calif.) with 30 μL of FuGENE6 (Roche Diagnostics, Indianapolis, Ind.) following the manufacturer's protocol. Stable cell lines (293 Wnt-Luc) were selected with 400 μg/mL of G418 (Gibco/Invitrogen, Carlsbad, Calif.). The 293 Wnt-Luc cells and L-cell Wnt3a cells (obtained from American Type Culture Collection, ATCC, Manassas, Va.) are trypsinized and co-cultured into a 384-well plate with DMEM medium supplemented with 2% FBS, and treated with different concentrations of a compound of the invention. After 24 hours, the firefly luciferase activities are assayed with the Bright-Glo™ Luciferase Assay System (Promega, Madison, Wis.). The IC50 is measured when the effect of the compound reduces the luminescence signal by 50%.
A general note: A reporter such as luciferase makes a cellular process visible.

The IC50 is the point on the concentration scale where inhibition reaches its midpoint. Higher therefore signals weaker potency. `Cc1cc(-c2ncc(CNC(=O)c3ccc(-c4cnccn4)cn3)cc2F)ccn1` [compound 60, N-{[5-fluoro-6-(2-methylpyridin-4-yl)pyridin-3-yl]methyl}-5-(pyrazin-2-yl)pyridine-2-carboxamide] displayed a concentration for half-maximal inhibition (IC50) of 0.26 nM.

`Cc1cc(-c2ncc(CNC(=O)c3ccc(-c4cnccn4)nc3)cc2F)ccn1` [compound 61, N-{[5-fluoro-6-(2-methylpyridin-4-yl)pyridin-3-yl]methyl}-6-(pyrazin-2-yl)pyridine-3-carboxamide] had a 50% inhibitory concentration (IC50) of 0.62 nM.

In the case of `CC(=O)N1CCN(c2ccc(C(=O)NCc3cnc(-c4ccnc(C)c4)c(F)c3)nc2)CC1` [compound 62, 5-(4-acetylpiperazin-1-yl)-N-{[5-fluoro-6-(2-methylpyridin-4-yl)pyridin-3-yl]methyl}pyridine-2-carboxamide], the half-maximal inhibitory concentration (IC50) came to 11.8 nM.

Molecule `Cc1cc(-c2ncc(CNC(=O)c3ccc(-c4cnccn4)cn3)cc2C)ccn1` [compound 63, N-((2′,3-dimethyl-2,4′-bipyridin-5-yl)methyl)-5-(pyrazin-2-yl)picolinamide] had an IC50 of 2.5 nM.

In turn, `Cc1c(F)cccc1-c1ccc(C(=O)NCc2ccc(-c3ccnc(C(F)(F)F)c3)nc2)nc1` [compound 64, 5-(3-fluoro-2-methylphenyl)-N-({6-[2-(trifluoromethyl)pyridin-4-yl]pyridin-3-yl}methyl)pyridine-2-carboxamide] returned a half-maximal inhibitory concentration (IC50) of 11 nM.

In turn, `Cc1ccc(F)cc1-c1ccc(C(=O)NCc2ccc(-c3ccnc(C(F)(F)F)c3)nc2)nc1` [compound 65, 5-(5-fluoro-2-methylphenyl)-N-({6-[2-(trifluoromethyl)pyridin-4-yl]pyridin-3-yl}methyl)pyridine-2-carboxamide] gave an IC50 of 5.8 nM.

`Cc1cc(CNC(=O)c2ccc(-c3cnccn3)cn2)cnc1-c1cc[nH]c(=O)c1` [compound 66, N-((5-Methyl-6-(2-oxo-1,2-dihydropyridin-4-yl)pyridin-3-yl)methyl)-5-(pyrazin-2-yl)picolinamide] displayed a concentration for half-maximal inhibition (IC50) of 45 nM.

In the case of `Cc1ncccc1-c1ccc(C(=O)NCc2ccc(-c3ccnc(C(F)(F)F)c3)nc2)nc1` [compound 67, 5-(2-methylpyridin-3-yl)-N-({6-[2-(trifluoromethyl)pyridin-4-yl]pyridin-3-yl}methyl)pyridine-2-carboxamide], the IC50 turned out to be 6 nM.

Molecule `O=C(NCc1ccc(N2CCS(=O)(=O)CC2)nc1)c1ccc(-c2cnccn2)cn1` [compound 68, N-((6-(1,1-dioxidothiomorpholino)pyridin-3-yl)methyl)-5-(pyrazin-2-yl)picolinamide] displayed a half-inhibitory concentration (IC50) of 38 nM.

Regarding `O=C(NCc1ccc(N2CCS(=O)(=O)CC2)nc1)c1ccc(-c2cnccn2)nc1` [compound 69, N-((6-(1,1-dioxidothiomorpholino)pyridin-3-yl)methyl)-6-(pyrazin-2-yl)nicotinamide], the half-inhibitory concentration (IC50) is 88 nM.

`Cc1cc(C(=O)NCc2cnc(-c3ccnc(C(F)(F)F)c3)c(C)c2)ccc1-c1ncccc1C` [compound 70, 3-methyl-N-({5-methyl-6-[2-(trifluoromethyl)pyridin-4-yl]pyridin-3-yl}methyl)-4-(3-methylpyridin-2-yl)benzamide]: the IC50 worked out at 27 nM.

`O=C(NCc1cnc(-c2ccnnc2)c(F)c1)c1ccc(-c2cnccn2)cn1` [compound 71, N-{[5-fluoro-6-(pyridazin-4-yl)pyridin-3-yl]methyl}-5-(pyrazin-2-yl)pyridine-2-carboxamide]: the midpoint of inhibition, the IC50, lay at 2.5 nM.

In the case of `O=C(NCc1ccc(-c2ccnc(C(F)(F)F)c2)nc1)c1ccc(-c2ccc(N3CCCC3=O)nc2)cn1` [compound 72, 6′-(2-Oxopyrrolidin-1-yl)-N-((2′-(trifluoromethyl)-[2,4′-bipyridin]-5-yl)methyl)-[3,3′-bipyridine]-6-carboxamide], the IC50 was determined as 1.9 nM.

In the case of `Cc1cccnc1-c1ccc(C(=O)NCc2ccc(-c3ccnc(C(F)(F)F)c3)nc2)nc1` [compound 73, 5-(3-methylpyridin-2-yl)-N-({6-[2-(trifluoromethyl)pyridin-4-yl]pyridin-3-yl}methyl)pyridine-2-carboxamide], the half-inhibitory concentration (IC50) was 6 nM.

The values are drawn from patent US9181235B2, “Substituted pyridines for modulating the WNT signaling pathway” (NOVARTIS AG, priority 2010, dated 2015).
